Reference: the supplement of paper PMC10307832

How the values were obtained:
Assay in all cases: relative viability (nuclei count vs DMSO), 5 days (fraction); higher = more cells survive
[1] = compound: CCC1=CN=CN=C1N2CCN(CC2)CC3=NC4=C(N3)C=C(C=C4)C(F)(F)F + C[C@@H](Oc1cc(-c2cnn(C3CCNCC3)c2)cnc1N)c1c(Cl)ccc(F)c1Cl [Crizotinib] (partner 1 µM)
Procedure, shortened: (§1)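 Dosing by pin tool came one day after lung cancer cell lines were seeded in 1536-well plates, using either one drug or a fixed anchor-drug dose plus five library-drug doses (not always all listed) in √10 steps. After 5 days, nuclei were counted on 4× images. Relative viability is treated-well nuclei count divided by vehicle-well nuclei count, and values are medians of duplicate plates.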

[2] = compound: CCC1=CN=CN=C1N2CCN(CC2)CC3=NC4=C(N3)C=C(C=C4)C(F)(F)F + O=C(CCCCCCC(=O)Nc1ccccc1)NO [Vorinostat] (partner 1 µM)
Procedure, shortened: as §1

[3] = compound: N=C1NC(=O)/C(=C/c2ccc(O)cc2)S1 [Mirin] + CC1(C)CCC(c2ccc(Cl)cc2)=C(CN2CCN(c3ccc(C(=O)NS(=O)(=O)c4ccc(N[C@H](CCN5CCOCC5)CSc5ccccc5)c(S(=O)(=O)C(F)(F)F)c4)cc3)CC2)C1 [Navitoclax] (partner 0.5 µM)
Procedure, shortened: as §1

[4] = compound: N=C1NC(=O)/C(=C/c2ccc(O)cc2)S1 [Mirin] + O=C(c1cc(Cc2n[nH]c(=O)c3ccccc23)ccc1F)N1CCN(C(=O)C2CC2)CC1 [Olaparib] (partner 8 µM)
Procedure, shortened: as §1

| Cell Line | relative viability ([1]; first compound 0.04 µM) | relative viability ([1]; first compound 0.1265 µM) | relative viability ([1]; first compound 0.4 µM) | relative viability ([1]; first compound 1.265 µM) | relative viability ([1]; first compound 4 µM) | relative viability ([2]; first compound 0.04 µM) | relative viability ([2]; first compound 0.1265 µM) | relative viability ([2]; first compound 0.4 µM) | relative viability ([2]; first compound 1.265 µM) | relative viability ([2]; first compound 4 µM) | relative viability ([3]; first compound 0.25 µM) | relative viability ([3]; first compound 2.5 µM) | relative viability ([3]; first compound 7.906 µM) | relative viability ([3]; first compound 25 µM) | relative viability ([4]; first compound 0.25 µM) | relative viability ([4]; first compound 0.7906 µM) | relative viability ([4]; first compound 2.5 µM) | relative viability ([4]; first compound 7.906 µM) | relative viability ([4]; first compound 25 µM) | relative viability ([3]; first compound 0.7906 µM) |
| --- | --- | --- | --- | --- | --- | --- | --- | --- | --- | --- | --- | --- | --- | --- | --- | --- | --- | --- | --- | --- |
| LOU-NH91 | 0.695 | 0.696 | 0.761 | 0.779 | 0.801 | 0.842 | 0.907 | 0.927 | 0.76 | 0.993 | 0.681 | 0.673 | 0.718 | 0.76 | 0.927 | 0.976 | 0.946 | 0.943 | 1.09 |  |
| NCI-H460 | 1.06 | 1.03 | 0.886 | 0.832 | 1.14 | 0.819 | 0.69 | 0.708 | 0.684 | 0.672 | 1.18 | 1.19 | 1.06 | 0.913 | 0.505 | 0.447 | 0.438 | 0.413 | 0.557 | 1.27 |
| NCI-H1915 | 0.916 | 0.878 | 0.85 | 0.934 | 1.03 | 0.591 | 0.51 | 0.496 | 0.492 | 0.559 | 0.775 | 0.76 | 0.743 | 0.866 | 0.283 | 0.221 | 0.272 | 0.223 | 0.182 |  |
| NCI-H1734 | 0.655 | 0.679 | 0.751 |  | 1.12 | 0.734 | 0.803 | 0.783 | 0.7 | 0.814 | 0.838 | 0.793 | 0.742 | 0.771 | 0.538 | 0.582 | 0.662 | 0.556 | 0.461 | 0.746 |
| NCI-H1993 | 0.835 | 0.813 | 0.883 | 0.873 | 0.856 | 0.846 | 0.983 | 0.648 | 0.816 | 0.964 | 1.03 | 0.913 | 0.932 | 0.749 | 1.07 | 1.07 | 1.12 | 0.932 | 0.962 | 1.02 |
| LK-2 | 0.331 | 0.181 | 0.212 | 0.486 | 1.07 | 0.245 | 0.235 | 0.356 | 0.223 | 0.244 | 0.752 | 0.799 | 0.588 | 0.525 | 0.629 | 0.454 | 0.695 | 0.489 | 0.546 | 0.625 |
| HCC-78 | 0.304 | 0.3 | 0.345 | 0.322 | 0.379 | 0.528 | 0.405 | 0.47 | 0.4 | 0.409 | 0.758 | 0.866 | 0.847 | 0.674 | 0.786 | 0.628 | 0.718 | 0.852 | 0.732 | 0.712 |
| NCI-H3122 | 0.262 | 0.264 | 0.318 | 0.531 | 0.469 | 1.04 | 0.863 | 1.01 | 1.03 | 0.875 | 1.01 | 1.01 | 1.09 | 1.15 | 0.691 | 0.667 | 0.566 | 0.623 | 0.664 | 1.1 |
| HOP-62 | 0.777 | 1.09 | 0.931 | 1.06 | 0.896 | 0.604 | 0.56 | 0.462 | 0.429 | 0.606 | 1.03 | 0.955 | 0.888 | 1.43 | 0.548 | 0.409 | 0.219 | 0.381 | 0.519 | 1.02 |
| BEN | 0.924 | 0.868 | 0.963 | 0.532 | 0.662 | 0.556 | 0.566 | 0.565 | 0.457 | 0.464 | 0.0987 | 0.0674 | 0.0737 | 0.0559 | 0.958 | 0.987 | 1.21 | 0.962 | 0.638 | 0.0819 |
| ChaGo-K-1 |  | 1.15 | 1.21 | 1.12 | 1.16 | 0.792 | 0.75 | 0.712 | 0.648 | 0.824 | 0.974 | 0.997 | 0.849 | 0.85 | 0.415 | 0.363 | 0.43 | 0.381 | 0.253 |  |
| SK-MES-1 | 1.01 | 1.01 | 0.942 | 1.09 | 1.19 | 1.11 | 1.04 | 1.01 | 1.03 | 1.08 | 1.2 | 1.23 | 1.19 | 1.4 | 0.721 | 0.877 | 0.682 | 0.583 | 0.455 | 1.34 |
| NCI-H1755 | 0.963 | 0.809 | 0.948 | 0.89 | 1.06 | 0.741 | 0.699 | 0.641 | 0.514 | 0.827 | 1.03 | 1.03 | 1.09 | 1.14 | 0.851 | 0.914 | 0.866 | 0.833 | 0.93 | 1.11 |
| NCI-H2023 | 0.712 | 0.655 | 0.713 | 0.713 | 1.07 | 0.561 | 0.575 | 0.649 | 0.556 | 0.776 | 0.991 | 1.01 | 0.995 | 0.972 | 0.496 | 0.506 | 0.454 | 0.459 | 0.416 | 0.963 |
| LC-2-ad | 0.501 | 0.431 | 0.503 | 0.749 | 0.852 | 0.737 | 0.652 | 0.636 | 0.687 | 0.682 | 0.452 | 0.466 | 0.36 | 0.401 | 0.743 | 0.757 | 0.706 | 0.784 | 0.733 | 0.673 |
| NCI-H1666 | 0.974 | 0.916 | 1.1 | 0.849 | 1.03 | 1.04 | 1.04 | 0.843 | 0.922 | 0.994 | 0.921 | 1.03 | 0.719 | 0.59 | 0.763 | 0.797 | 0.737 | 0.71 | 0.728 | 0.941 |
